Assay [1] has as its system Lactobacilli. Briefly: quantitative suspension assay, Lactobacilli. Type of assay: cell-based. Particulars: control 10^5/ml. The text has this: (§1) Bacteriological assay methods for additives quantitative suspension assay II (suspension test)
(§2) Microorganisms: aerobic microorganisms (total germ count), Enterobacteriaceae, Enterococci, Lactobacilli, yeasts, molds. These methods are capable of determining the effects of the additives as a function of dosage and duration of action using different microorganisms on different nutrient media.
(§3) Quantitative suspension assay II—suspension test a) Inoculate test germ suspension with the desired test germ, e.g., 10^6/ml, expose for 1-60 min. Place desired formulation to be tested into desiganted germ suspension tubes (different percentages). Await end of exposure times and pour or inoculate into the appropriate agar plates, depending on the germ. […]
(§4) b) Treat the test germ suspension with the desired formulation to be tested (see a) prior to inoculating the test germs (see a). Await end of exposure times and then inoculate with the respective test germs, and inoculate or pour into the appropriate agar plates depending on the test germ.

Assay [2] has as its system Enterobacteria. Briefly: quantitative suspension assay, Enterobacteria. As to conditions: control 10^8/ml. Type of assay: cell-based, Enterobacteriaceae.
Excerpt: as §1, §2, §3, §4

For assay [3], the system named is yeasts. Description: quantitative suspension assay, yeasts. Type of assay: cell-based. As to conditions: control 10^5/ml.
Excerpt: as §1, §2, §3, §4

Assay [4] has as its system aerobic microorganisms (total germ count). Briefly: quantitative suspension assay, total germ count. The format is cell-based. Particulars: control 10^8/ml.
Excerpt: as §1, §2, §3, §4

Assay [5] relates to molds. Description: quantitative suspension assay, molds. Type of assay: cell-based. As to conditions: control 10^5/ml.
Excerpt: as §1, §2, §3, §4

The subject of assay [6] is Enterococci. Briefly: quantitative suspension assay, Enterococci. The format is cell-based. Particulars: control 10^8/ml.
Excerpt: as §1, §2, §3, §4

Consider five compounds from patent US20020176882A1, “Additive the improvement and/or stabilization of the keeping quality of microbially perishable products” (priority 1997, published 2002).
Note: test concentration or dose not given here.

Consider `CC(O)C(=O)O` (stereo not drawn) [Lactic acid], for which the Lactobacilli germ count in assay [1] (5 min exp. time) was 10^5 /ml; in assay [1] (15 min exp. time), 10^4 /ml; in assay [1] (60 min exp. time), 10^4 /ml. Besides, the Enterobacteria germ count in assay [2] (5 min exp. time), in assay [2] (15 min exp. time) and in assay [2] (60 min exp. time) was 10^6 /ml each time. The yeasts germ count in assay [3] (5 min exp. time), in assay [3] (15 min exp. time) and in assay [3] (60 min exp. time) was 10^5 /ml each time. The total germ count in assay [4] (5 min exp. time), in assay [4] (15 min exp. time) and in assay [4] (60 min exp. time) was 10^7 /ml each time. In addition, the molds germ count in assay [5] (5 min exp. time), in assay [5] (15 min exp. time) and in assay [5] (60 min exp. time) was 10^5 /ml each time. Moreover, the Enterococci germ count in assay [6] (5 min exp. time), in assay [6] (15 min exp. time) and in assay [6] (60 min exp. time) was 10^7 /ml throughout.
Take tannin [Formulation 1a]: the values for the Lactobacilli germ count in assay [1] (5 min exp. time), in assay [1] (15 min exp. time) and in assay [1] (60 min exp. time) were 10^5 /ml, 10^4 /ml and 10^4 /ml, respectively. Also, the Enterobacteria germ count in assay [2] (5 min exp. time), in assay [2] (15 min exp. time) and in assay [2] (60 min exp. time) was 10^6 /ml throughout. Also, the yeasts germ count in assay [3] (5 min exp. time), in assay [3] (15 min exp. time) and in assay [3] (60 min exp. time) was 10^4 /ml in each case. Further, the total germ count in assay [4] (5 min exp. time), in assay [4] (15 min exp. time) and in assay [4] (60 min exp. time) was 10^6 /ml in each case. Further, the molds germ count in assay [5] (5 min exp. time), in assay [5] (15 min exp. time) and in assay [5] (60 min exp. time) was 10^4 /ml each time. The Enterococci germ count is reported as 10^7 /ml in assay [6] (5 min exp. time), 10^6 /ml in assay [6] (15 min exp. time) and 10^6 /ml in assay [6] (60 min exp. time).
`OCC(O)CO` [Glycerol]: the Lactobacilli germ count in assay [1] (5 min exp. time), in assay [1] (15 min exp. time) and in assay [1] (60 min exp. time) was 10^5 /ml in each case. Also, the Enterobacteria germ count in assay [2] (5 min exp. time), in assay [2] (15 min exp. time) and in assay [2] (60 min exp. time) was 10^7 /ml each time. Besides, the yeasts germ count in assay [3] (5 min exp. time), in assay [3] (15 min exp. time) and in assay [3] (60 min exp. time) was 10^5 /ml throughout. The total germ count in assay [4] (5 min exp. time) is on record as 10^6 /ml; in assay [4] (15 min exp. time), 10^8 /ml; in assay [4] (60 min exp. time), 10^8 /ml. Further, the molds germ count in assay [5] (5 min exp. time), in assay [5] (15 min exp. time) and in assay [5] (60 min exp. time) was 10^5 /ml in each case. Further, the Enterococci germ count in assay [6] (5 min exp. time), in assay [6] (15 min exp. time) and in assay [6] (60 min exp. time) was 10^8 /ml each time.
As for `OCc1ccccc1` [Benzyl alcohol], the Lactobacilli germ count in assay [1] (5 min exp. time), in assay [1] (15 min exp. time) and in assay [1] (60 min exp. time) was 10^5 /ml in each case. For the same compound, the Enterobacteria germ count in assay [2] (5 min exp. time), in assay [2] (15 min exp. time) and in assay [2] (60 min exp. time) was 10^7 /ml throughout. In addition, the figures for the yeasts germ count in assay [3] (5 min exp. time), in assay [3] (15 min exp. time) and in assay [3] (60 min exp. time) were 10^5 /ml, 10^4 /ml and 10^4 /ml, respectively. The total germ count in assay [4] (5 min exp. time) is recorded as 10^8 /ml; in assay [4] (15 min exp. time), 10^7 /ml; in assay [4] (60 min exp. time), 10^7 /ml. The values for the molds germ count in assay [5] (5 min exp. time), in assay [5] (15 min exp. time) and in assay [5] (60 min exp. time) were 10^5 /ml, 10^4 /ml and 10^4 /ml, respectively. Besides, the Enterococci germ count was 10^8 /ml in assay [6] (5 min exp. time), 10^7 /ml in assay [6] (15 min exp. time) and 10^7 /ml in assay [6] (60 min exp. time).
Turning to `CC(O)CO` (stereo not drawn) [Propylene glycol], the Lactobacilli germ count in assay [1] (5 min exp. time), in assay [1] (15 min exp. time) and in assay [1] (60 min exp. time) was 10^5 /ml in each case. Further, the Enterobacteria germ count in assay [2] (5 min exp. time), in assay [2] (15 min exp. time) and in assay [2] (60 min exp. time) was 10^8 /ml throughout. For the same compound, the yeasts germ count in assay [3] (5 min exp. time), in assay [3] (15 min exp. time) and in assay [3] (60 min exp. time) was 10^5 /ml each time. Moreover, the total germ count in assay [4] (5 min exp. time), in assay [4] (15 min exp. time) and in assay [4] (60 min exp. time) was 10^9 /ml throughout. Moreover, the molds germ count in assay [5] (5 min exp. time), in assay [5] (15 min exp. time) and in assay [5] (60 min exp. time) was 10^5 /ml throughout. Moreover, the Enterococci germ count in assay [6] (5 min exp. time), in assay [6] (15 min exp. time) and in assay [6] (60 min exp. time) was 10^8 /ml each time.
